Test results as given in patent US20240101592A1, “COMPOSITIONS AND METHODS FOR TREATING CNS DISORDERS” (Sage Therapeutics, Inc., priority 2020, published 2024).

Molecular target: GABAA receptor ([35S]-TBPS binding, rat brain cortical membranes)
Experiment: Steroid inhibition of [35S]-TBPS binding
Conditions: 3 nM [35S]-TBPS, in the presence of 5 mM GABA, 90 min at room temp
Procedure: Steroid Inhibition of TBPS Binding
[^35S]-t-Butylbicyclophosphorothionate (TBPS) binding assays using rat brain cortical membranes in the presence of 5 mM GABA has been described (Gee et al, J. Pharmacol. Exp. Ther. 1987, 241, 346-353; Hawkinson et al, Mol. Pharmacol. 1994, 46, 977-985; Lewin, A. H et al., Mol. Pharmacol. 1989, 35, 189-194).
Briefly, cortices are rapidly removed following decapitation of carbon dioxide-anesthetized Sprague-Dawley rats (200-250 g). The cortices are homogenized in 10 volumes of ice-cold 0.32 M sucrose using a glass/teflon homogenizer and centrifuged at 1500×g for 10 min at 4° C. The resultant supernatants are centrifuged at 10,000×g for 20 min at 4° C. to obtain the P2 pellets. The P2 pellets are resuspended in 200 mM NaCl/50 mM Na—K phosphate pH 7.4 buffer and centrifuged at 10,000×g for 10 min at 4° C. This washing procedure is repeated twice and the pellets are resuspended in 10 volumes of buffer. Aliquots ([…]) of the membrane suspensions are incubated with 3 nM [^35S]-TBPS and […] aliquots of test drug dissolved in dimethyl sulfoxide (DMSO) (final 0.5%) in the presence of 5 mM GABA. The incubation is brought to a final volume of 1.0 mL with buffer. Nonspecific binding is determined in the presence of […] and ranged from 15 to 25%. Following a 90 min incubation at room temp, the assays are terminated by filtration through glass fiber filters (Schleicher and Schuell No. 32) using a cell harvester (Brandel) and rinsed three times with ice-cold buffer. Filter bound radioactivity is measured by liquid scintillation spectrometry. Non-linear curve fitting of the overall data for each drug averaged for each concentration is done using Prism (GraphPad). […] The concentration of test compound producing 50% inhibition (IC50) of specific binding and the maximal extent of inhibition (Imax) are determined for the individual experiments with the same model used for the overall data and then the means±SEM.s of the individual experiments are calculated.
Various compounds are or can be screened to determine their potential as modulators of [^35S]-TBPS binding in vitro. These assays are or can be performed in accordance with the above.

Row | SMILES | IC50 [µM]
1 | COC[C@@]1(O)CC[C@H]2[C@@H](CC[C@@H]3[C@@H]2CC[C@@]2(C)[C@H]3[C@@H]3C[C@@H]3[C@@H]2[C@@H](C)Cn2nnc(C)n2)C1 [Compound No. 18, (2R,4aS,4bR,6aS,7R,7aS,8aR,8bR,8cR,10aS)-2-(methoxymethyl)-6a-methyl-7-((R)-1-(5-methyl-2H-tetrazol-2-yl)propan-2-yl)octadecahydrocyclopropa[4,5]cyclopenta[1,2-a]phenanthren-2-ol] | 0.1 to 1
2 | CC(=O)[C@H]1CC[C@@]23C[C@@]12CC[C@H]1[C@H]3CC[C@H]2C[C@](C)(O)CC[C@@]21C [Compound No. 22, 1-((3R,5S,8R,9S,10S,13S,14S,17S)-3-hydroxy-3,10-dimethyltetradecahydro-1H-13,14-methanocyclopenta[a]phenanthren-17-yl)ethanone] | 0.1 to 1
3 | C[C@@]1(O)CC[C@@]2(C)[C@@H](CC[C@@H]3[C@@H]2CC[C@@]24C[C@@]32CC[C@@H]4C(=O)Cn2cc(C#N)cn2)C1 [Compound No. 23, 1-(2-((3R,5S,8R,9S,10S,13S,14S,17S)-3-hydroxy-3,10-dimethyltetradecahydro-1H-13,14-methanocyclopenta[a]phenanthren-17-yl)-2-oxoethyl)-1H-pyrazole-4-carbonitrile] | < 0.1
4 | C[C@@]1(O)CC[C@H]2[C@H](CC[C@@H]3[C@@H]2CC[C@]2(C)[C@@H]([C@H]4C[C@@H]4Cn4cc(C#N)cn4)CC[C@@H]32)C1 [Compound No. 24, 1-(((1S,2R)-2-((3R,5R,8R,9R,10S,13S,14S,17R)-3-hydroxy-3,13-dimethylhexadecahydro-1H-cyclopenta[a]phenanthren-17-yl)cyclopropyl)methyl)-1H-pyrazole-4-carbonitrile] | < 0.1
5 | C[C@@]1(O)CC[C@H]2[C@H](CC[C@@H]3[C@@H]2CC[C@]2(C)[C@@H]([C@@H]4C[C@H]4Cn4cc(C#N)cn4)CC[C@@H]32)C1 [Compound No. 25, 1-(((1R,2S)-2-((3R,5R,8R,9R,10S,13S,14S,17R)-3-hydroxy-3,13-dimethylhexadecahydro-1H-cyclopenta[a]phenanthren-17-yl)cyclopropyl)methyl)-1H-pyrazole-4-carbonitrile] | < 0.1
6 | Cc1nnnn1C[C@H]1C[C@@H]1[C@H]1CC[C@H]2[C@@H]3CC[C@@H]4C[C@](C)(O)CC[C@@H]4[C@H]3CC[C@]12C [Compound No. 26, (3R,5R,8R,9R,10S,13S,14S,17R)-3,13-dimethyl-17-((1R,2S)-2-((5-methyl-1H-tetrazol-1-yl)methyl)cyclopropyl)hexadecahydro-1H-cyclopenta[a]phenanthren-3-ol] | < 0.1
7 | Cc1nnnn1C[C@@H]1C[C@H]1[C@H]1CC[C@H]2[C@@H]3CC[C@@H]4C[C@](C)(O)CC[C@@H]4[C@H]3CC[C@]12C [Compound No. 27, (3R,5R,8R,9R,10S,13S,14S,17R)-3,13-dimethyl-17-((1S,2R)-2-((5-methyl-1H-tetrazol-1-yl)methyl)cyclopropyl)hexadecahydro-1H-cyclopenta[a]phenanthren-3-ol] | 0.1 to 1
8 | Cc1nnn(C[C@@H]2C[C@H]2[C@H]2CC[C@H]3[C@@H]4CC[C@@H]5C[C@](C)(O)CC[C@@H]5[C@H]4CC[C@]23C)n1 [Compound No. 28, (3R,5R,8R,9R,10S,13S,14S,17R)-3,13-dimethyl-17-((1S,2R)-2-((5-methyl-2H-tetrazol-2-yl)methyl)cyclopropyl)hexadecahydro-1H-cyclopenta[a]phenanthren-3-ol] | < 0.1
